Data published in paper PMC6706930, “A novel oral micellar fenretinide formulation with enhanced bioavailability and antitumour activity against multiple tumours from cancer stem cells” (Journal of Experimental & Clinical Cancer Research : CR, 2019).

Assay: Fecal excretion of 4-HPR and metabolites
Type: in vivo, mice
Set-up: Fecal excretion, amount: unit not given here
Protocol: The oral pharmacokinetics of Bio-nFeR were investigated in four independent groups of 24 mice, randomized to receive different treatment with the following fenretinide equivalent doses: 10, 50, 100 and 200 mg/Kg. The drug was administered by oral gavage and after treatment, blood samples were taken at 15 and 30 min and at 1, 2, 4, 8/10, 24 and 48 h and collected in heparinized tubes from the retro-orbital plexus of the mice under isoflurane anesthesia. Mice were then sacrificed by cervical dislocation and liver, kidney and brain were removed and immediately frozen in dry-ice for future determination. To obtain plasma, blood was centrifuged at 4000 rpm for 10 min at 4 °C. To evaluate fenretinide and metabolites excretion, urine and faeces were collected over a 0–24 h and 24–48 h periods. The collection was performed in three mice per group of treatment, individually housed into metabolic cages for urine and faeces collection. All the biological samples were stored at − 20 °C until analysis. To compare the absorption of Bio-nFeR to NCI-FeR and to study the bioavailability, another independent groups of 24 mice were randomized to receive an oral dose of 200 mg/Kg of NCI-FeR. Blood samples were taken at the time reported above. Twenty-four hours fractions of urine and faeces were collected in three mice per group of treatment. Plasma and the other biological specimens were stored at − 20 °C until analysis. Chronic study: the oral pharmacokinetic of Bio-nFeR in comparison with NCI-FeR were also investigated after chronic administrations. Mice were divided in three independent groups, randomized to receive a single treatment of 150 mg/Kg or different repeated treatments of 150 mg/Kg, daily for 2 weeks (12 days on and 2 days off), or 100 mg/Kg bi-daily for 1 week (5 days on 2 days off). Bio-nFeR and NCI-FeR were administered by oral gavage, collecting blood samples at 0.5, 1, 2, 4, 8/10 and 24 h, the day of the single treatment and at 0, 1, 2, 4, 8/10, 24 and 48 h after the last dose of both the chronic treatments. The procedures of blood collection, plasma preparation, sacrifice of mice and storing of samples were as reported in acute study. Also during chronic treatment, excretions of fenretinide and metabolites in urine and faeces were determined collecting the specimens in three mice per group, both at the start of treatment and at the end of the repeated administration. All the collected samples were stored at − 20 °C until analysis.
The determination of fenretinide in plasma of mice and the others biological samples was determined according to a method specifically developed and validated for the quantification of fenretinide (4-HPR) based on liquid chromatography-tandem mass spectrometry (LC–MS/MS) (manuscript in preparation). The procedure of sample preparation and quantification can be summarized as follows. 30 μL aliquot of plasma was added with 3 ng of deuterated internal standard (^2H4 4-HPR), deproteinized by mean of 90 μL of acetonitrile and centrifuged 5 min at 13200 rpm at room temperature. The supernatant was recovered and 5 μL injected into a HPLC system (Series 200, Perkin Elmer, MA, USA). Chromatographic separation was achieved on a Gemini-C18 column (50 mm × 2.0 mm, 5 μm particle size; Phenomenex Inc., Torrance, CA, USA) at 32 °C protected with a Security Guard™ ULTRA cartridges C18. The detection obtained by Mass spectrometric detection was carried out on a triple quadrupole API 4000 mass spectrometer (Sciex, MA, USA) equipped with atmospheric pressure chemical ionization source (APCI) operating in positive ion mode monitoring the transitions 392.3 > 283.2 m/z for 4-HPR and 396.3 > 283.2 m/z for the deuterated internal standard. To assay study samples, a calibration curve of six points (range: 1.0–500.00 ng/mL) was prepared in control mouse plasma assessing the precision and the accuracy of the run analyzing at the same time a set of freshly prepared quality controls samples. […]

[1] = 2 wks 1 daily dose 150 mg/kg Bio-nFeR
[2] = 2 wks 1 daily dose 150 mg/kg NCI-FeR
[3] = feces after 24 hours, acute Bio-nFeR 10 mg/kg
[4] = feces after 24 hours, acute Bio-nFeR 50 mg/kg
[5] = feces after 24 hours, acute Bio-nFeR 100 mg/kg
[6] = feces after 24 hours, acute Bio-nFeR 200 mg/kg
[7] = feces after 24 hours, acute NCI-FeR 200 mg/kg
[8] = single admin. 150 mg/kg Bio-nFeR
[9] = single admin. 150 mg/kg NCI-FeR

Row | Compound | Fecal excretion, amount [1] | Fecal excretion, percent (in brackets) [1] [%] | Fecal excretion, amount [2] | Fecal excretion, percent (in brackets) [2] [%] | Fecal excretion, amount [3] | Fecal excretion, percent (in brackets) [3] [%] | Fecal excretion, amount [4] | Fecal excretion, percent (in brackets) [4] [%] | Fecal excretion, amount [5] | Fecal excretion, percent (in brackets) [5] [%] | Fecal excretion, amount [6] | Fecal excretion, percent (in brackets) [6] [%] | Fecal excretion, amount [7] | Fecal excretion, percent (in brackets) [7] [%] | Fecal excretion, amount [8] | Fecal excretion, percent (in brackets) [8] [%] | Fecal excretion, amount [9] | Fecal excretion, percent (in brackets) [9] [%] | proportion of Bio-nFeR and NCI-FeR eliminated in faeces (acute treatment at multiple doses and chronic treatment)
1 | CC1=C(/C=C/C(C)=C/C=C/C(C)=C/C(=O)Nc2ccc(O)cc2)C(C)(C)CCC1=O [4-oxo-4-HPR] | 97.5 | 4.2 | 201.1 | 6.6 | 47 | 32.6 | 253.8 | 26.5 | 85.5 | 4.9 | 129.8 | 4.3 | 115.6 | 3.9 | 108.4 | 5.0 | 103.7 | 4.2 | –
2 | COc1ccc(NC(=O)\C=C(C)/C=C/C=C(C)\C=C\C2=C(C)CCCC2(C)C)cc1 [MPR] | 0.9 | 0.0 | 0.8 | 0.0 | 0.03 | 0.02 | 0.5 | 0.05 | 0.7 | 0.04 | 1.2 | 0.05 | 0.4 | 0.02 | 1.6 | 0.1 | 0.4 | 0.02 | less than 0.1%
3 | CC1=C(/C=C/C(C)=C/C=C/C(C)=C/C(=O)Nc2ccc(O)cc2)C(C)(C)CCC1 [4-HPR, 4-hydroxy (phenyl)retinamide, reference compound] | 97.4 | 4.2 | 270 | 7.6 | 4.7 | 3.2 | 38.2 | 4.0 | 33.6 | 1.9 | 77.4 | 2.5 | 153.4 | 5.5 | 129.5 | 6.1 | 247.1 | 9.2 | –
